Several values for one entry are separate records, joined by “and”; a condition that tells them apart may be missing. Equal entries are not always repeated.
System: 186277-243-T-J2-PDC spheroids with HUVEC/MSC, viability
Experiment: Anticancer human tumor 186277-243-T-J2-PDC patient-derived colon adenocarcinoma cell line growth inhibition [CLK]
Settings: for viability, T/C: stronger effect = lower value
Outline: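 Multi-cell-type spheroids combined patient-derived tumor cells with HUVEC endothelial cells and human mesenchymal stem cells. Paired agents were dosed in half-log steps down from about clinical Cmax, or from 10 microM where Cmax was unknown.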

[1] = curve of first compound, second compound 0.0316 µM
[2] = curve of first compound, second compound 0.1 µM
[3] = curve of first compound, second compound 0.316 µM
[4] = curve of first compound, second compound 1 µM
[5] = curve of first compound, second compound 3.16 µM
[6] = curve of first compound, second compound 10 µM
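Further: compound exposure lasted seven days before readout.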
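Wherever viability, T/C is given: 100% = DMSO vehicle control wells.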

With CCc1c2c(nc3ccc(O)cc13)-c1cc3c(c(=O)n1C2)COC(=O)[C@]3(O)CC + CN1CCN(c2cc(C(=O)Nc3cc4cc(-c5cnn(C)c5)ccc4cn3)ccn2)CC1 the IC50 [1] was 22.6 nM, the IC50 [2] was 14.1 nM and the IC50 [3] was < 3.16 nM. The IC50 [4] was < 3.16 nM, the IC50 [5] was < 3.16 nM and the IC50 [6] was < 3.16 nM. For the same compound, the viability, T/C (second compound 0.0316 µM, first compound 0.00316 µM) was 82.2%, the viability, T/C (second compound 0.0316 µM, first compound 0.01 µM) was 73.1% and the viability, T/C (second compound 0.0316 µM, first compound 0.0316 µM) was 39.9%. The viability, T/C (second compound 0.0316 µM, first compound 0.1 µM) was 22.3%, the viability, T/C (second compound 0.0316 µM, first compound 0.316 µM) was 19.1% and the viability, T/C (second compound 0.0316 µM, first compound 1 µM) was 14.1%. For the same compound, the viability, T/C (second compound 0.1 µM, first compound 0.00316 µM) was 66.9%, the viability, T/C (second compound 0.1 µM, first compound 0.01 µM) was 58.6% and the viability, T/C (second compound 0.1 µM, first compound 0.0316 µM) was 31.4%. It also gave a viability, T/C (second compound 0.1 µM, first compound 0.1 µM) of 17.5%, a viability, T/C (second compound 0.1 µM, first compound 0.316 µM) of 14.3% and a viability, T/C (second compound 0.1 µM, first compound 1 µM) of 8.76%. The viability, T/C (second compound 0.316 µM, first compound 0.00316 µM) was 17.9%, the viability, T/C (second compound 0.316 µM, first compound 0.01 µM) was 19% and the viability, T/C (second compound 0.316 µM, first compound 0.0316 µM) was 14.4%. The viability, T/C (second compound 0.316 µM, first compound 0.1 µM) was 8.65%, the viability, T/C (second compound 0.316 µM, first compound 0.316 µM) was 2.67% and the viability, T/C (second compound 0.316 µM, first compound 1 µM) was 1.34%. For the same compound, the viability, T/C (second compound 1 µM, first compound 0.00316 µM) was 1.11%, the viability, T/C (second compound 1 µM, first compound 0.01 µM) was 3.1% and the viability, T/C (second compound 1 µM, first compound 0.0316 µM) was 1.69%. It also gave a viability, T/C (second compound 1 µM, first compound 0.1 µM) of 0.66%, a viability, T/C (second compound 1 µM, first compound 0.316 µM) of 1.14% and a viability, T/C (second compound 1 µM, first compound 1 µM) of 1.75%. The viability, T/C (second compound 3.16 µM, first compound 0.00316 µM) was 0.95%, the viability, T/C (second compound 3.16 µM, first compound 0.01 µM) was 2.49% and the viability, T/C (second compound 3.16 µM, first compound 0.0316 µM) was 1.5%. It also gave a viability, T/C (second compound 3.16 µM, first compound 0.1 µM) of 1.25%, a viability, T/C (second compound 3.16 µM, first compound 0.316 µM) of 2.1% and a viability, T/C (second compound 3.16 µM, first compound 1 µM) of 1.56%. It also gave a viability, T/C (second compound 10 µM, first compound 0.00316 µM) of 0.8%, a viability, T/C (second compound 10 µM, first compound 0.01 µM) of 1.71% and a viability, T/C (second compound 10 µM, first compound 0.0316 µM) of 0.41%. The viability, T/C (second compound 10 µM, first compound 0.1 µM) was 1.3%, the viability, T/C (second compound 10 µM, first compound 0.316 µM) was 0.67% and the viability, T/C (second compound 10 µM, first compound 1 µM) was 0.26%.

With C=C(F)C(=O)N1CCN(c2nc(OCC3CCCN3C)nc3c2CCN(c2cccc4cccc(Cl)c24)C3)CC1CC#N (stereo not given) the viability, T/C (compound 0.0316 µM) was 79% and 94.1%, the viability, T/C (compound 0.1 µM) was 82.2% and 88.8% and the viability, T/C (compound 0.316 µM) was 93% and 82.2%. For the same compound, the viability, T/C (compound 1 µM) was 83.4% and 89.4%, the viability, T/C (compound 3.16 µM) was 101% and 109% and the IC50 (curve of compound) was 5270 nM and 7510 nM.

With CC(C)CC(NC(=O)C(Cc1ccccc1)NC(=O)c1cnccn1)B(O)O (stereo not given) + CN1CCN(c2cc(C(=O)Nc3cc4cc(-c5cnn(C)c5)ccc4cn3)ccn2)CC1 the IC50 [1] was 4.52 nM, the IC50 [2] was 2.27 nM and the IC50 [3] was < 0.949 nM. The IC50 [4] was < 0.949 nM, the IC50 [5] was < 0.949 nM and the IC50 [6] was < 0.949 nM. It also gave a viability, T/C (second compound 0.0316 µM, first compound 0.000949 µM) of 93%, a viability, T/C (second compound 0.0316 µM, first compound 0.003 µM) of 77.2% and a viability, T/C (second compound 0.0316 µM, first compound 0.00949 µM) of 0.25%. For the same compound, the viability, T/C (second compound 0.0316 µM, first compound 0.03 µM) was 0.9%, the viability, T/C (second compound 0.0316 µM, first compound 0.0949 µM) was 0.78% and the viability, T/C (second compound 0.0316 µM, first compound 0.3 µM) was 1.15%. The viability, T/C (second compound 0.1 µM, first compound 0.000949 µM) was 88.1%, the viability, T/C (second compound 0.1 µM, first compound 0.003 µM) was 37.7% and the viability, T/C (second compound 0.1 µM, first compound 0.00949 µM) was 1.84%. It also gave a viability, T/C (second compound 0.1 µM, first compound 0.03 µM) of 0.31%, a viability, T/C (second compound 0.1 µM, first compound 0.0949 µM) of 1.92% and a viability, T/C (second compound 0.1 µM, first compound 0.3 µM) of 0.17%. The viability, T/C (second compound 0.316 µM, first compound 0.000949 µM) was 26.1%, the viability, T/C (second compound 0.316 µM, first compound 0.003 µM) was 1.14% and the viability, T/C (second compound 0.316 µM, first compound 0.00949 µM) was 1.35%. For the same compound, the viability, T/C (second compound 0.316 µM, first compound 0.03 µM) was 1.4%, the viability, T/C (second compound 0.316 µM, first compound 0.0949 µM) was 1.62% and the viability, T/C (second compound 0.316 µM, first compound 0.3 µM) was 0.34%. For the same compound, the viability, T/C (second compound 1 µM, first compound 0.000949 µM) was 0.5%, the viability, T/C (second compound 1 µM, first compound 0.003 µM) was 0.4% and the viability, T/C (second compound 1 µM, first compound 0.00949 µM) was 1.57%. The viability, T/C (second compound 1 µM, first compound 0.03 µM) was 0.8%, the viability, T/C (second compound 1 µM, first compound 0.0949 µM) was 1.78% and the viability, T/C (second compound 1 µM, first compound 0.3 µM) was 0.17%. It also gave a viability, T/C (second compound 3.16 µM, first compound 0.000949 µM) of 2.83%, a viability, T/C (second compound 3.16 µM, first compound 0.003 µM) of 0.72% and a viability, T/C (second compound 3.16 µM, first compound 0.00949 µM) of 0.33%. The viability, T/C (second compound 3.16 µM, first compound 0.03 µM) was 1.62%, the viability, T/C (second compound 3.16 µM, first compound 0.0949 µM) was 1.24% and the viability, T/C (second compound 3.16 µM, first compound 0.3 µM) was 0.17%. The viability, T/C (second compound 10 µM, first compound 0.000949 µM) was 1.17%, the viability, T/C (second compound 10 µM, first compound 0.003 µM) was 0.46% and the viability, T/C (second compound 10 µM, first compound 0.00949 µM) was 0.27%. The viability, T/C (second compound 10 µM, first compound 0.03 µM) was 1.87%, the viability, T/C (second compound 10 µM, first compound 0.0949 µM) was 1.18% and the viability, T/C (second compound 10 µM, first compound 0.3 µM) was 0.16%.

Reference: PubChem BioAssay AID2060625 (Molecular Pharmacology Branch, DTP, NCI, 2025)
